Measured values from patent US20220133753A1, “COMPOSITIONS AND METHODS USEFUL FOR TREATING DISEASES CHARACTERIZED BY INSUFFICIENT PANTOTHENATE KINASE ACTIVITY” (Comet Therapeutics, Inc., priority 2016, published 2022).

Legend:
[1] = Conversion of CoA in mouse serum by HPLC; assay type: in vitro ADME
From the text: The conversion of CoA to 4′-phosphopantetheine was further investigated in mouse serum and in human serum.

[2] = liver extracts, −20° C., after a week; cited from earlier work
[3] = test system: HEK293 cells; experiment: HoPan treatment of mammalian HEK293 cells in combination with CoA or 4′-phosphopantetheine; assay type: cell-based, human; details: HoPan treated HEK293 cells, compound added to the medium
Method: HoPan treatment of mammalian HEK293 Cells in combination with CoA and 4′-phosphopantetheine treatment: HEK293 cells were maintained in dMEM (Invitrogen) supplemented with 10% fetal calf serum (Gibco) and antibiotics (penicillin/streptomycin, Invitrogen). For HoPan treatment, cells were cultured in custom made dMEM without vitamin B5 (Thermo Scientific) supplemented with dialyzed FCS (Thermo Scientific). CoA or PPanSH was added to HEK293 cells for the final concentration of 25 uM, either in the presence or absence of HoPan (0.5 mM) for 4 days, followed by analysis for phenotype and rescue efficiency of CoA and PPanSH.
Western blot analysis and Antibodies: For Western blot analysis, cells were collected and washed with phosphate buffer saline (PBS), followed by centrifugation. The cells were lysed and sonicated in 1X Laemmli Sample Buffer and boiled for 5 min with 5% β-mercaptoethanol (Sigma). Protein content was determined using DC protein assay (BioRad). Equal amounts of protein were loaded on a 10 or 12.5% SDS-PAGE gel, transferred onto PVDF membranes and blocked with 5% milk in PBS/0.1% Tween, followed by overnight incubation with primary antibodies. The primary antibodies used were: rabbit-anti dPANK/fbl, 1:4000 Eurogentec custom made as described previously5, mouse anti-tubulin (Sigma Aldrich Cat no: T5168, 1:5000), anti-acetyl-Histone3 (Active Motif Cat no: 39139, 1:2000), anti GAPDH (Fitzgerald Cat no: 10R-G109a, 1:10000), rabbit anti COASY (Abcam Cat no: AB129012, 1:1000). Appropriate HRP-conjugated secondary antibodies (Amersham) were used and detection was performed using enhanced chemi-luminescence (Pierce cat nog: 32106) and Amersham hyperfilm (GE Healthcare). Band intensities were quantified with Image-studio software.

[4] = Parallel Artificial Membrane Permeability Assay (PAMPA); assay type: in vitro ADME; details: 5 h incubation, room temperature, phosphate-buffered saline
Method: FIG. 13E is a depiction of a Parallel Artificial Membrane Permeability Assay (PAMPA). Experiments were performed according to the manufacturer's instructions. In this assay, a two-well system is separated by an artificial lipid-oil-lipid membrane (shown in grey). To the lower (donor) compartment, a compound dissolved in buffer is added, the upper (acceptor) compartment contains only buffer. After 5 hours of incubation, concentration of compound is measured in both wells to assess its propensity to diffuse over the artificial membrane. The permeability was calculated according to the manufacturer's instruction (formulas are depicted to the right). Compounds that are below the assay threshold are predicted to be unable to pass membranes passively, whereas compounds above the threshold are able to pass membranes passively. Ceq=Equilibrium Concentration, CD=Concentration in donor well, VD=Volume of donor well (0.3 ml), CA=Concentration in acceptor well, VA=Volume of acceptor well (0.2 ml), P=Permeability, S=Membrane area (0.3 cm2), t=Incubation time (18000 s).
PAMPA assay procedure: Parallel Artificial Membrane Permeability Assay (PAMPA) was performed and processed according to manufacturer's instructions (BD Gentest Pre-coated PAMPA plates). Briefly, two superimposed wells are separated by an artificial lipid-oil-lipid membrane. The compound of interest (PPanSH, CoA, caffeine, amiloride) was added to the bottom well in phosphate-buffered saline, whereas the top well was filled with phosphate-buffered saline alone. After 5 h of incubation at room temperature, concentrations of the different compounds were measured using UV-VIS absorption spectroscopy (BMG Labtech SPECTROstar Omega) along with calibration curves for all compounds. The permeability efficiency was further calculated according to manufacturer's instructions. For caffeine and amiloride, four replicates were performed; for PPanSH and CoA twelve replicates were performed. Caffeine and amiloride were obtained from Sigma.

[5] = test system: homozygous dCOASY mutants; experiment: Drosophila dCOASY mutants, larval development with CoA or Vitamin B5; assay type: in vivo, Drosophila melanogaster; details: added to the food
Method: Drosophila Maintenance and Crosses: Drosophila melanogaster stocks/crosses were raised on standard cornmeal agar fly food (containing water, agar 17 g/L, sugar 54 g/L, yeast extract 26 g/L and nipagin 1.3 g/L) at 25° C. The stocks were either obtained from the Bloomington Stock Centre (Indiana University, USA), VDRC (Vienna Drosophila RNAi Collection, Vienna, Austria) or from the Exelixis Collection (Harvard Medical School) and rebalanced to generate eGFP-positive balancers. The stocks used were: w1118; dPANK/fbl1 hypomorph5,6; dPANK/fblnull (y[1] w[*]; Mi{y[+mDint2]=MIC}fbl[MI04001]/TM3, Sb[1] Ser[1], Bloomington 36941); dPPCDC mutant (w[1118], PBac{w[+mC]=WH}Ppcdc[f00839]/CyO, Bloomington 18377); UAS-dPPCDCRNAi line (VDRC 104495); dCOASY mutant (PBac{RB}Ppat-Dpck[e00492], Exelixis). The UAS-RNAi constructs were expressed ubiquitously using the Actin-Gal4 drivers (y[1] w[*]; P{w[+mC]=Act5C-GAL4}25FO1/CyO, y[+], Bloomington 4414). Heterozygous flies/larvae for the mutants and the Actin-Gal4 driver crossed to isogenic w1118 flies (Actin-Gal4/+) were used as controls for the RNAi-constructs expressing flies.
Drosophila Larval Collection and Larval Count Experiment: One week old flies (in the ratio 10 females and 5 males) were kept on 5 ml of standard fly food in a vial at 25° C. with or without various concentrations of CoA or Vitamin B5 (Sigma). […]

## CC(C)(COP(=O)(O)OP(=O)(O)OC[C@H]1O[C@@H](n2cnc3c(N)ncnc32)[C@H](O)[C@@H]1OP(=O)(O)O)[C@@H](O)C(=O)NCCC(=O)NCCS [CoA, Coenzyme A]
[1]
  conversion of CoA in serum: converted to 4′-phosphopantetheine
[2]
  CoA degrades to: 50%
[3]
  rescue of HoPan-induced impaired histone acetylation: rescued
  rescue of HoPan-induced reduction in cell count: rescued
[3]; HPLC
  intracellular CoA level: restored the intracellular concentration of CoA
[4]
  membrane permeation (PAMPA): poorly permeating molecule and not
[5]
  rescue of the phenotype: did not result in a significant rescue
